Results as given in patent US20240102991A1, “Synthetic Fluorescent Protein Biosensors and Use Thereof in Drug Screening Methods” (The Regents of the University of Colorado, a body corporate, priority 2017, published 2024).

System: biosensor expressing cells (HEK293T)
Type: cell-based, human

## Cholera Toxin
  biosensors that respond in some way to the single drug treatment: > 80%
